Measured values published in paper PMC12131194, “Rational design, synthesis, and evaluation of novel polypharmacological compounds targeting NaV1.5, KV1.5, and K2P channels for atrial fibrillation” (The Journal of Biological Chemistry, 2025).
Read-outs that look alike come from different tables or passages of the source. Blank lines part the entries; values can stand above or below the compound they belong to.

Legend:
TASK-1 = system: TASK-1; parameters: method as in PMID 21946151; details: HEK-293 cells; ref [38]; read-out: Reported IC50 TASK-1; cited from earlier work
NaV1.5 [1] = details: X. laevis oocytes, racemic (R/S) compound; ref [39]; read-out: Reported IC50 NaV1.5; cited from earlier work
KV1.5 = system: KV1.5; parameters: method as in PMID 33817777; details: X. laevis oocytes, ref [15], read-out: Reported IC50 KV1.5, cited from earlier work
h KV1.5 = molecular target: T1, h KV1.5 (Homo sapiens, UniProt P22460); experiment: TEVC recordings in X. laevis oocytes, KV1.5; type: cell-based; details: 100 μM, +40 mV, oocytes, mean ± SD
T1 construct: h KV1.5 (KCNA5, NM_002234); expressed in transfected cells; host or cells: Xenopus laevis oocytes injected with cRNA
Protocol: (§1) The two-electrode voltage clamp (TEVC) technique was used for electrophysiology tests. Channels were expressed in Xenopus laevis oocytes. The initial channel-blocking potential was assessed at 100 μM for the 10 synthesized compounds on TASK-1 and KV1.5 channels.
(§2) To obtain X. laevis oocytes, the frogs were anesthetized with 2 g/L of tricaine methanesulfonate, and the ovarian lobes were mechanically separated with forceps. The oocytes were incubated for 120 min in an OR2 solution containing in mM: NaCl 82.5, KCl 2, MgCl2 1, HEPES 5 (pH 7.5) supplemented with 2 mg/ml of collagenase II (Sigma) to remove residual connective tissue and obtain individual oocytes. Subsequently, the oocytes were washed with a ND96 solution containing in mM: NaCl 96, KCl 2, CaCl2 1.8, MgCl2 1, HEPES 5 (pH 7.5, adjusted with NaOH) and stored at 18 °C in ND96 solution supplemented with 1 ml of gentamicin (50 mg/L), sodium pyruvate (275 mg/L) and (90 mg/L) theophylline (inhibits further oocyte maturation) before and after RNA injection.
(§3) In order to overexpress the channel in the oocyte, each of the channels to be measured was subcloned (complementary DNA (cDNA); human TASK-1 (KCNK3, NM_002246), h KV1.5 (KCNA5, NM_002234), h NaV1.5 (hH1, M77235), TASK-4/TALK-2 (KCNK17, NM_AF358910), TREK-1 (KCNK2, AF004711) and Kir2.1 (KCNJ2, NM_017296) into pSGEM, pBF1 or pSP64 expression vector, and the cDNA was linearized with NheI or MluI. Complementary RNA (cRNA) was synthesized with the mMESSAGE mMACHINE-Kit (Ambion). The quality of the cRNA was tested on an agarose gel by electrophoresis. cRNA was quantified using a UV-Vis spectrophotometer (NanoDrop 2000). Subsequently, the channel was transfected in the oocytes in stages V and VI, for which […] (TASK-1, KV1.5 or TREK-1), 10 ng (NaV1.5 or TASK-4) o 2.5 ng (Kir2.1) per oocyte of cRNA was injected with a NanojectII microinjector (Drummond Scientific). The oocytes were stored in 24-well plates for 24 to 48 h at 18 °C. After this time, the overexpression of each channel was monitored through electrophysiology.
(§4) Two-electrode voltage clamp measurements were performed 24 or 48 h after cRNA injection at room temperature (20–22 °C) in ND96 recording solution with a TurboTEC-10CD (npi) amplifier and a Digidata 1550B (for TASK-1 and KV1.5) and 1440A (for NaV1.5) A/D converter from Axon Instruments. Micropipettes were fabricated from GB 150 TF-8P borosilicate glass capillaries (Science Products) elongated in a DMZ-Universal Puller (Zeitz, Germany). […] ND96 was used as bath solution. Data acquisition was performed using Clampex 10 software (Axon Instruments), and data were analyzed with ClampFit 10 (Axon Instruments) and Origin 7 (Origin Lab Corporation).
(§5) For compound inhibition testing, from a holding potential of −80 mV a first test pulse to 0 mV of 1 s duration was followed by a repolarization step at −80 mV for 1 s, directly followed by another 1 s test pulse at +40 mV. The sweep time interval was 10 s for KV1.5 and TASK-1 channels. For the NaV1.5 channel, the block was analyzed with voltage steps from a holding potential of −80 mV. A first depolarizing pulse to −30 mV of 50 ms duration was applied, followed by a 5 ms step to −80 mV. The sweep time interval was 5 s. The compounds were applied at different concentrations to determine the half-maximal inhibitory concentration (IC50), using a fit to the Hill equation.
(§6) To test for a putative voltage-dependence of the block by the compound 6f in KV1.5, a 1.5 s voltage step protocol from −80 to +80 mV with +20 mV increments was used. The holding potential was −80 mV and the sweep time interval was 10 s. Currents were analyzed at the end of the voltage pulse. For TASK-1, voltage-dependence of block was probed using a high-potassium solution (KD96) containing in mM: KCl 96, NaCl 2, CaCl2 1.8, MgCl2 1, HEPES 5, (pH 7.5, adjusted with KOH). From a holding potential of 0 mV, voltage was stepped from −80 mV to +80 mV for 1.5 s in +20 mV steps every 10 s. […]

human erythrocytes = experiment: Hemolysis assay; type: cell-based; details: 0.2–400 μM, 2 hours, 37 °C
Protocol: To evaluate cytotoxicity, the hemolysis of the compounds with the best simultaneous blocking activity on the channels (6e, 6f, 7a, 7b and 7c) was considered, modifying the protocol of Chen 2018 ([112]). Thus, non-heparinized human blood was collected. Erythrocytes were washed three times in 1× PBS (phosphate-buffered saline: NaCl, 8 g/L; KCl, 0.2 g/L; Na2HPO4, 1.44 g/L; and KH2PO4, 0.24 g/L; pH 7.4) and then used to prepare a 3% red blood cell (RBC) suspension. The assay was performed in a 96-well polypropylene microplate.
The compounds were prepared from 200 mM stock solutions in DMSO. Subsequently, 1:2 serial dilutions were made in 1× PBS, with final concentrations from 400 to 0.2 μM to a final volume of 200 μl per well. The microplate was incubated for 2 h at 37 °C and centrifuged at 3400 rpm for 5 min. Finally, 100 μl of the supernatant was transferred and measured in a 96-well plate. Hemoglobin release was monitored by photometric analysis of the supernatant at 540 nm using an Epoch Microplate Spectrophotometer (BioTek Instruments, Inc. Winooski, Vermont 05404-0998).
A 3% RBC suspension treated with Tween 20 was used to obtain total lysis as a positive control. Other authors who performed hemolysis assays have also considered this and other detergents, such as Triton X-100 and Sodium Dodecyl Sulfate (SDS) as positive controls ([113], [114], [115], [116]). The negative control was a suspension of red blood cells with PBS. Each experiment was performed in triplicate at all concentrations used. The percentage of hemolysis was calculated with the following (Equation 1), where Ad: absorbance of the dilution, A0: absorbance of the blank (RBC suspension with PBS), and At: total absorbance (positive control).(1) %hemolysis=Ad−A0/At−A0x100

h NaV1.5 = molecular target: T2, h NaV1.5 (Homo sapiens, UniProt Q14524, R1027Q); experiment: TEVC recordings in X. laevis oocytes, NaV1.5; type: cell-based; details: 100 μM, −30 mV, oocytes, mean ± SD
T2 construct: expressed in transfected cells; host or cells: Xenopus laevis oocytes injected with cRNA
Protocol: as §2, §3, §4, §5
To test for a putative voltage-dependence of the block by the compound 6f in KV1.5, a 1.5 s voltage step protocol from −80 to +80 mV with +20 mV increments was used. The holding potential was −80 mV and the sweep time interval was 10 s. Currents were analyzed at the end of the voltage pulse. For TASK-1, voltage-dependence of block was probed using a high-potassium solution (KD96) containing in mM: KCl 96, NaCl 2, CaCl2 1.8, MgCl2 1, HEPES 5, (pH 7.5, adjusted with KOH). From a holding potential of 0 mV, voltage was stepped from −80 mV to +80 mV for 1.5 s in +20 mV steps every 10 s. To determine the current-voltage relationship of the NaV1.5 channel, the voltage was stepped for 50 ms from a holding potential of −80 mV to −70 mV to +80 mV in +10 mV increments every 5 s. The peak currents were subsequently plotted against the respective applied voltages.

human TASK-1 = human TASK-1 (Homo sapiens, UniProt O14649); experiment: TEVC recordings in X. laevis oocytes, TASK-1; type: cell-based; parameters: human TASK-1 (KCNK3, NM_002246); expressed in transfected cells; host or cells: Xenopus laevis oocytes injected with cRNA; details: 100 μM, +40 mV, oocytes, mean ± SD
Protocol: as §1, §2, §3, §4, §5, §6

virtual atria with AF = system: virtual atria with AF; parameters: method as in PMID 37475475, PMID 38870348; details: ref [74], [75]; cited from earlier work
NaV1.5 [2] = details: HEK-293 cells, racemic (R/S) compound, NaV1.5 open state; ref [40]; read-out: Reported IC50 NaV1.5; cited from earlier work

T2 sequence (Q14524 whole entry R1027Q): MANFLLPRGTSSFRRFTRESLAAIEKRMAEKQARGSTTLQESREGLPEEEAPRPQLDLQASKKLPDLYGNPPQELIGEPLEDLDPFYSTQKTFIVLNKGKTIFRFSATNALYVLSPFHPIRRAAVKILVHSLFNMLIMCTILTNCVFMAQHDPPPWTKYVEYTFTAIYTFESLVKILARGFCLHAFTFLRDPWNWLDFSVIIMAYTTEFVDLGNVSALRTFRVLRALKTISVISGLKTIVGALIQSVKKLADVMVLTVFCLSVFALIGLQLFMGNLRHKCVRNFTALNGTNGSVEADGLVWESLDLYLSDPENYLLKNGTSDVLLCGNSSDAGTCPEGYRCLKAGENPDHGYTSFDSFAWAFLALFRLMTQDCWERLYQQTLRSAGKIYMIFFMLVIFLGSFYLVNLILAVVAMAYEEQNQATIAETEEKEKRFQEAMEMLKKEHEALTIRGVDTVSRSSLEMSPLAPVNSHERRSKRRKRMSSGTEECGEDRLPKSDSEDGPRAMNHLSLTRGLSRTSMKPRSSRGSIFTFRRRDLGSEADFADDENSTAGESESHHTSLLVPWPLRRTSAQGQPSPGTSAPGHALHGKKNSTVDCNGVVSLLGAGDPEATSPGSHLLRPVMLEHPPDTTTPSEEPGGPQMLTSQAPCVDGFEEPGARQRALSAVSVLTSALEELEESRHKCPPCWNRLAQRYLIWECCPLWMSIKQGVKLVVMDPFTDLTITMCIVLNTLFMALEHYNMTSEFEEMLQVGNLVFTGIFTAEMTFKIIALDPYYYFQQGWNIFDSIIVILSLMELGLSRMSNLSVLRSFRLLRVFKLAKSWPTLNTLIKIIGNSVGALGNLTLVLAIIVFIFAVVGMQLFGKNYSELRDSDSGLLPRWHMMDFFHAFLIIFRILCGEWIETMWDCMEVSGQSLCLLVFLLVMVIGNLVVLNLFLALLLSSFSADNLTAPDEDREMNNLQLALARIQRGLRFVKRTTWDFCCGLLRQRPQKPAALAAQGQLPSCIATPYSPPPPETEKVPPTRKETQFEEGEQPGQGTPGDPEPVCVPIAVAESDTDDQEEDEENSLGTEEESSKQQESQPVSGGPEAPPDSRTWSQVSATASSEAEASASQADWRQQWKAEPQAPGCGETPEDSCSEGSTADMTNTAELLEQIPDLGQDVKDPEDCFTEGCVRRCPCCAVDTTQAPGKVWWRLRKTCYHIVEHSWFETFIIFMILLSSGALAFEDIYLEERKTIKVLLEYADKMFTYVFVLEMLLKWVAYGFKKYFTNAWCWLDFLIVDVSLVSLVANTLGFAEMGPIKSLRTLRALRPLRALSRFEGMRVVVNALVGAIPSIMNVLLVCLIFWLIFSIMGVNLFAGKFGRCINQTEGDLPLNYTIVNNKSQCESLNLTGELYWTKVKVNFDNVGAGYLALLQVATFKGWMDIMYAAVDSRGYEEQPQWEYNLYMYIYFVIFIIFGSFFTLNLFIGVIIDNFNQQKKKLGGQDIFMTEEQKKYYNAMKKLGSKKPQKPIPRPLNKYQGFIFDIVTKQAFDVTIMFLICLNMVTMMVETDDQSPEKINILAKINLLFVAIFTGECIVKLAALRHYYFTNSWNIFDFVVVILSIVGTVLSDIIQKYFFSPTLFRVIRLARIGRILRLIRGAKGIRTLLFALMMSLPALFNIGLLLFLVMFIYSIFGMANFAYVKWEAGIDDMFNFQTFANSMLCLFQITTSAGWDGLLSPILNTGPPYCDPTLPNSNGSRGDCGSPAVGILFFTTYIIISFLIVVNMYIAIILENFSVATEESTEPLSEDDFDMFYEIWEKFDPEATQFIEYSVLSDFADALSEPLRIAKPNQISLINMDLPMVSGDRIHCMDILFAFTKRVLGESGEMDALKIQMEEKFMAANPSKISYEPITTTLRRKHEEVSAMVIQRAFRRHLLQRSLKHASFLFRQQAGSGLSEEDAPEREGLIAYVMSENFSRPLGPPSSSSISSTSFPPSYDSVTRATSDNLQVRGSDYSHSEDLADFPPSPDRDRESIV
T1 sequence (P22460 whole entry): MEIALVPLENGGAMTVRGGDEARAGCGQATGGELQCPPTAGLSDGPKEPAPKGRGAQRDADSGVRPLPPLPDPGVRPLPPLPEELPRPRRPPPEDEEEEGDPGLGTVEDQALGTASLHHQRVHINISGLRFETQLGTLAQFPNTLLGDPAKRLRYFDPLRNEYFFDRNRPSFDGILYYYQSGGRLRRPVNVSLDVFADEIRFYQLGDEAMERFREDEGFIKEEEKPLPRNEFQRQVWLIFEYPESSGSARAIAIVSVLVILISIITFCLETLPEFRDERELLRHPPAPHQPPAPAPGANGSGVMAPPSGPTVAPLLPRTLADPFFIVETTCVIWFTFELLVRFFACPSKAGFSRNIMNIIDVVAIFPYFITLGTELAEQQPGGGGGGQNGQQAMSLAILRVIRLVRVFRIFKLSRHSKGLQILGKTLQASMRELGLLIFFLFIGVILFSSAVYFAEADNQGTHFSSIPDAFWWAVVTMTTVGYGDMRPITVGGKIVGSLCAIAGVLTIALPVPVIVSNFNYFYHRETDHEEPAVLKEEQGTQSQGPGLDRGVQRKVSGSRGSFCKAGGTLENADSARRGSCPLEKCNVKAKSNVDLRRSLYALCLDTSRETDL
Sequence of human TASK-1 (O14649 whole entry): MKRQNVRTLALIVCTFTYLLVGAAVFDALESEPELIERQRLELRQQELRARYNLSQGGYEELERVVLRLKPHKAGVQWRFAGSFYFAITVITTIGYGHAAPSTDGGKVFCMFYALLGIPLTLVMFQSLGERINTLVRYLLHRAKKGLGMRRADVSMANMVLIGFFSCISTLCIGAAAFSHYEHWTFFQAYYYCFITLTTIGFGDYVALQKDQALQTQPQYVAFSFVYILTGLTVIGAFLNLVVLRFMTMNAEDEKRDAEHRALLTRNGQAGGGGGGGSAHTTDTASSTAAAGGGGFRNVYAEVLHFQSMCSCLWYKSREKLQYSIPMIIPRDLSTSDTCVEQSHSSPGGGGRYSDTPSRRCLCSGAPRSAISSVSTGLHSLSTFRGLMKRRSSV

inhibition at 100 µM (h KV1.5): 42.2 ± 21.2%
SMILES: CCCCN(CCCC)CC(=O)Nc1ccc(OC)cc1 [Compound 6e, 2-(dibutylamine)-N-(4-methoxiphenyl)acetamide]
Hemolytic effect (human erythrocytes): no hemolytic effect | inhibition at 100 µM (h NaV1.5): 81.2 ± 19%

inhibition at 100 µM (h KV1.5): 38 ± 16.1%
SMILES: CCCCN(CCCC)C(C)C(=O)Nc1ccc(OC)cc1 (stereo not shown) [Compound 7a, 2-(dibutylamine)-N-(4-methoxiphenyl)propanamide]
Hemolytic effect (human erythrocytes): no hemolytic effect | inhibition at 100 µM (h NaV1.5): 11.9 ± 15%

inhibition at 100 µM (h KV1.5): 35.7 ± 18.3% | inhibition at 100 µM (human TASK-1): 89.3 ± 6.56%
SMILES: CCCCN(CCCC)C(C)C(=O)Nc1cccc2ccccc12 (stereo not shown) [Compound 7c, 2-(dibutylamine)-N-(naphthalen-1-yl)propanamide]
Hemolytic effect (human erythrocytes): no hemolytic effect | inhibition at 100 µM (h NaV1.5): 31.1 ± 13.7%

inhibition at 100 µM (h KV1.5): 36.9 ± 13.6%
SMILES: CCCCN(CCCC)C(C)C(=O)Nc1ccccc1C (stereo not shown) [Compound 7b, 2-(dibutylamine)-N-(o-tolyl)propanamide]
Hemolytic effect (human erythrocytes): no hemolytic effect | inhibition at 100 µM (h NaV1.5): 58.9 ± 21.2%

inhibition at 100 µM (h KV1.5): 12.3 to 35.7%
SMILES: CCCCN(CCCC)C(C)C(=O)Nc1cc(C)cc(C)c1 (stereo not shown) [Compound 7d, 2-(dibutylamine)-N-(3,5-dimetilphenyl)propanamide]

Continued, compound first:

SMILES: CCCCN1CCCCC1C(=O)Nc1c(C)cccc1C (stereo not shown) [Bupivacaine, bupivacaine]
IC50 (TASK-1): 12.1 µM | IC50 (NaV1.5 [1]): 4.5 µM | IC50 (KV1.5; racemic (R/S) compound): 31 µM

SMILES: CCCCN(CCCC)CC(=O)Nc1cc(C)cc(C)c1 [Compound 6c, 2-(dibutylamine)-N-(3,5-dimethylphenyl)acetamide]
inhibition at 100 µM (h KV1.5): 12.3 to 35.7%

SMILES: CCCCN(CCCC)CC(=O)Nc1ccccc1C [Compound 6a, 2-(dibutylamine)-N-(o-tolyl)acetamide]
inhibition at 100 µM (h KV1.5): 12.3 to 35.7% | inhibition at 100 µM (human TASK-1): 88.3 ± 6.57%

SMILES: CCCCN(CCCC)CC(=O)Nc1ccccc1CC [Compound 6b, 2-(dibutylamine)-N-(2-ethylphenyl)acetamide]
inhibition at 100 µM (h KV1.5): 12.3 to 35.7%

SMILES: Cc1cc(C)cc(NC(=O)CN(C(C)C)C(C)C)c1 [Compound 6d, 2-(diisopropylamine)-N-(3,5-dimetylphenyl)acetamide]
inhibition at 100 µM (h KV1.5): 12.3 ± 6.01%

SMILES: COc1ccc(CCO[C@@H]2CCCC[C@H]2N2CC[C@@H](O)C2)cc1OC [vernakalant]
Cardioversion efficacy in other simulation studies (virtual atria with AF): 42–57%

SMILES: CCCN1CCCC[C@H]1C(=O)Nc1c(C)cccc1C [ropivacaineS]
IC50 (KV1.5; S enantiomer): 129 µM

SMILES: CCCCc1oc2ccccc2c1C(=O)c1cc(I)c(OCCN(CC)CC)c(I)c1 [amiodarone]
Cardioversion efficacy in other simulation studies (virtual atria with AF): 57–80%

SMILES: O=C(NCC1CCCCN1)c1cc(OCC(F)(F)F)ccc1OCC(F)(F)F (stereo not shown) [flecainide]
Cardioversion efficacy in other simulation studies (virtual atria with AF): 48–70%

SMILES: CCCN1CCCC[C@H]1C(=O)Nc1c(C)cccc1C [Ropivacaine, ropivacaine]
IC50 (NaV1.5 [2]): 322 µM | IC50 (TASK-1): 17.6 µM
